Assay results published in patent US11059766B2, “Ethynyl derivatives” (Hoffmann-La Roche Inc., priority 2015, dated 2021).

Tests used:
[1] = target: T1, human mGlu5a receptor (Homo sapiens (Human), UniProt P41594); assay: Intracellular Ca2+ mobilization assay (mGlu5 PAM assay); format: cell-based; conditions: for mGlu5 PAM EC50: HEK-293 cells, glutamate at EC20; for Activity profile: PAM or NAM; for EC50 (nM) mGlu5 PAM assay: comparison table; for Efficacy: maximal response in % of maximal stimulatory effect of saturating L-glutamate
Procedure: A monoclonal HEK-293 cell line stably transfected with a cDNA encoding for the human mGlu5a receptor was generated; for the work with mGlu5 Positive Allosteric Modulators (PAMs), a cell line with low receptor expression levels and low constitutive receptor activity was selected to allow the differentiation of agonistic versus PAM activity. Cells were cultured according to standard protocols (Freshney, 2000) in Dulbecco's Modified Eagle Medium with high glucose supplemented with 1 mM glutamine, 10% (vol/vol) heat-inactivated bovine calf serum, Penicillin/Streptomycin, 50 μg/ml hygromycin and 15 μg/ml blasticidin (all cell culture reagents and antibiotics from Invitrogen, Basel, Switzerland).
About 24 hrs before an experiment, 5×10^4 cells/well were seeded in poly-D-lysine coated, black/clear-bottomed 96-well plates. The cells were loaded with 2.5 μM Fluo-4AM in loading buffer (1×HBSS, 20 mM HEPES) for 1 hr at 37° C. and washed five times with loading buffer. The cells were transferred into a Functional Drug Screening System 7000 (Hamamatsu, Paris, France), and 11 half logarithmic serial dilutions of test compound at 37° C. were added and the cells were incubated for 10-30 min with on-line recording of fluorescence. Following this pre-incubation step, the agonist L-glutamate was added to the cells at a concentration corresponding to EC20 (typically around 80 μM) with on-line recording of fluorescence; in order to account for day-to-day variations in the responsiveness of cells, the EC20 of glutamate was determined immediately ahead of each experiment by recording of a full dose-response curve of glutamate.
Responses were measured as peak increase in fluorescence minus basal (i.e. fluorescence without addition of L-glutamate), normalized to the maximal stimulatory effect obtained with saturating concentrations of L-glutamate. Graphs were plotted with the % maximal stimulatory using XLfit, a curve fitting program that iteratively plots the data using Levenburg Marquardt algorithm. The single site competition analysis equation used was y=A+((B−A)/(1+((x/C)D))), where y is the % maximal stimulatory effect, A is the minimum y, B is the maximum y, C is the EC50, x is the log 10 of the concentration of the competing compound and D is the slope of the curve (the Hill Coefficient). From these curves the EC50 (concentration at which half maximal stimulation was achieved), the Hill coefficient as well as the maximal response in % of the maximal stimulatory effect obtained with saturating concentrations of L-glutamate were calculated.
A depression of the signal observed after addition of the EC20 concentration of L-glutamate was indicative of an inhibitory activity of the test compound.

[2] = target: T1, human mGlu5a receptor; assay: MPEP binding assay ([3H]MPEP displacement); conditions: for EC50: [3H]MPEP 2 nM, EBNA cell membranes, read-out: mGlu5-MPEP binding EC50; for Ki: comparison table
Procedure: For binding experiments, cDNA encoding human mGlu5a receptor was transiently transfected into EBNA cells using a procedure described by Schlaeger and Christensen [Cytotechnology 15:1-13 (1998)]. Cell membrane homogenates were stored at −80° C. until the day of assay where upon they were thawed and resuspended and polytronised in 15 mM Tris-HCl, 120 mM NaCl, 100 mM KCl, 25 mM CaCl2, 25 mM MgCl2 binding buffer at pH 7.4 to a final assay concentration of 20 μg protein/well.
Saturation isotherms were determined by addition of twelve [^3H]MPEP concentrations (0.04-100 nM) to these membranes (in a total volume of 200 μl) for 1 h at 4° C. Competition experiments were performed with a fixed concentration of [^3H]MPEP (2 nM) and IC50 values of test compounds evaluated using 11 concentrations (0.3-10,000 nM). Incubations were performed for 1 h at 4° C.
At the end of the incubation, membranes were filtered onto unifilter (96-well white microplate with bonded GF/C filter preincubated 1 h in 0.1% PEI in wash buffer, Packard BioScience, Meriden, Conn.) with a Filtermate 96 harvester (Packard BioScience) and washed 3 times with cold 50 mM Tris-HCl, pH 7.4 buffer. Nonspecific binding was measured in the presence of 10 μM MPEP. The radioactivity on the filter was counted (3 min) on a Packard Top-count microplate scintillation counter with quenching correction after addition of 45 μl of microscint 40 (Canberra Packard S. A., Zürich, Switzerland) and shaking for 20 min.

[3] = rat Vogel conflict drinking test; format: in vivo

T1 sequence (P41594 other isoform, or with tags, fused parts or gaps): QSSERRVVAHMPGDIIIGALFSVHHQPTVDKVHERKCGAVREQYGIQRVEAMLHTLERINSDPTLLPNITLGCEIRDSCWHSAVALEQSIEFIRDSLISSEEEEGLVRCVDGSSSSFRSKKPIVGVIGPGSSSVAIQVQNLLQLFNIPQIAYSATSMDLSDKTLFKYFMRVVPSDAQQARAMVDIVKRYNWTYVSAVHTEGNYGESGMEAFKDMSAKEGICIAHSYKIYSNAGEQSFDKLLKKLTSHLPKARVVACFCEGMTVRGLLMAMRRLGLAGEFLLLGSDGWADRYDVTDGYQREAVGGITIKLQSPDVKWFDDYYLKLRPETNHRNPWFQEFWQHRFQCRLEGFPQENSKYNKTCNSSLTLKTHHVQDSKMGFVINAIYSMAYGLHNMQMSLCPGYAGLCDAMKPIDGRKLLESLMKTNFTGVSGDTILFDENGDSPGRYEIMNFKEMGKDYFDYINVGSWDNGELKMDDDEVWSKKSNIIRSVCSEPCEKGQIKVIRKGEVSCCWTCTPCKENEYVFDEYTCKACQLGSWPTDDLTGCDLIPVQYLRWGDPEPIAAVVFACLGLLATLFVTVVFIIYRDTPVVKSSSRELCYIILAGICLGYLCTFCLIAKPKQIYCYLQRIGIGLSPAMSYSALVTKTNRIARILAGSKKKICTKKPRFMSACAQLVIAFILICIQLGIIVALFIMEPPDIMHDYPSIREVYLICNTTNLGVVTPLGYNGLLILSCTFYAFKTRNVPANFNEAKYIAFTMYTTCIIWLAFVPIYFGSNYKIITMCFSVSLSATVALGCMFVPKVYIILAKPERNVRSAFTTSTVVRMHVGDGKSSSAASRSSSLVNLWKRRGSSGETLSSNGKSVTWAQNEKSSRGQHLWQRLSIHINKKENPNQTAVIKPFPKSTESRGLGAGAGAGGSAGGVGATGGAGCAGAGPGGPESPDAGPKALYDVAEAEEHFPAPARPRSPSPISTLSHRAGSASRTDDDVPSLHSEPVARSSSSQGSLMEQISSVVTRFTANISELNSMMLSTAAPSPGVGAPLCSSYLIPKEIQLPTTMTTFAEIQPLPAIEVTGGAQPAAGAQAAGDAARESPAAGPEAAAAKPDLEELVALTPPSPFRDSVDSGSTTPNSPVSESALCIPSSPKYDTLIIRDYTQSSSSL

| Compound | mGlu5 PAM EC50 [1] | Activity profile [1] | EC50 (nM) mGlu5 PAM assay [1] | EC50 [2] | Ki [2] | minimal effective dose (anxiolytic activity) [3] | Efficacy [1] |
| --- | --- | --- | --- | --- | --- | --- | --- |
| CN1C(=O)N(c2ccc(C#Cc3cc(F)ccc3F)cn2)[C@@H]2CC[C@@H]21 [Example 4, (−)-(1R,5S)-2-[5-(2,5-Difluoro-phenylethynyl)-pyridin-2-yl]-4-methyl-2,4-diazabicyclo[3.2.0]heptan-3-one] | inactive | NAM | inactive | 3 nM | 3 nM | – | – |
| CN1C(=O)N(c2ccc(C#Cc3ccccc3)cn2)[C@@H]2CC[C@@H]21 [Example 1, (−)-(1 S,5R)-2-methyl-4-(5-(phenylethynyl)pyridin-2-yl)-2,4-diazabicyclo[3.2.0]heptan-3-one] | inactive | NAM | inactive | 9 nM | 9 nM | 0.1 mg/kg | – |
| CN1C(=O)N(c2ccc(C#Cc3cccc(F)c3)cn2)[C@@H]2CC[C@@H]21 [Example 2, (−)-(1R,5S)-2-[5-(3-Fluoro-phenylethynyl)-pyridin-2-yl]-4-methyl-2,4-diazabicyclo[3.2.0]heptan-3-one] | inactive | NAM | inactive | 5 nM | 5 nM | – | – |
| CN1C(=O)N(c2ccc(C#Cc3ccc(F)cc3)cn2)[C@@H]2CC[C@@H]21 [Example 3, (−)-(1R,5S)-2-[5-(4-Fluoro-phenylethynyl)-pyridin-2-yl]-4-methyl-2,4-diazabicyclo[3.2.0]heptan-3-one] | inactive | NAM | inactive | 4 nM | 4 nM | – | – |
| CN1C(=O)N(c2ccc(C#Cc3ccccc3)cn2)[C@@H]2CCC[C@@H]21 [Ref. 1; Ex. 106, reference compound] | – | PAM | – | – | 8 nM | – | 42% |
| CN1C(=O)N(c2ccc(C#Cc3cccc(F)c3)cn2)[C@@H]2CCC[C@@H]21 [Ref. 1; Ex. 109, reference compound] | – | PAM | – | 12 nM | 37 nM | – | 37% |
